# Data as given in ChEMBL document CHEMBL3045041, “Synthesis of novel aryl(4-substituted pyridin-3-yl)methyl carbamates and their herbicidal activity” (J Pestic Sci, 2012).
# Experiments:
# Oryza sativa = assay: Phytotoxicity against Oryza sativa cv. Kinuhikari (rice) planted at 3 cm depth measured after 20 to 25 days; type: organism-based; conditions: in vivo
# [1] = system: Schoenoplectiella juncoides; assay: Herbicidal activity against Schoenoplectiella juncoides under greenhouse condition compound treated at 0.5 leaf stage measured after 14 to 20 days; type: functional
# Echinochloa oryzicola [2] = assay: Herbicidal activity against Echinochloa oryzicola under greenhouse condition compound treated at 2.5 leaf stage measured after 14 to 20 days; type: functional
# Echinochloa oryzicola [3] = assay: Herbicidal activity against Echinochloa oryzicola under greenhouse condition compound treated at emergence stage measured after 14 to 20 days; type: functional
Compound,ED20 (Oryza sativa),ED80 [1],ED80 (Echinochloa oryzicola [2]),ED80 (Echinochloa oryzicola [3])
CN(C)C(=O)OC(c1cnccc1C#N)c1cccc2ccccc12 (centres undefined),> 1000 gAi/ha,250 gAi/ha,250 gAi/ha,63 gAi/ha
COc1ccncc1C(OC(=O)N(C)C)c1cccc2ccccc12 (centres undefined),> 2000 gAi/ha,>1000 gAi/ha,>1000 gAi/ha,>1000 gAi/ha
Cc1ccncc1C(OC(=O)N(C)C)c1cccc2ccccc12 (centres undefined),2000 gAi/ha,>1000 gAi/ha,,500 gAi/ha
CN(C)C(=O)OC(c1cnccc1Cl)c1cccc2ccccc12 (centres undefined),1000 gAi/ha,63 gAi/ha,>500 gAi/ha,63 gAi/ha
CN(C)C(=O)OC(c1cnccc1Br)c1cccc2ccccc12 (centres undefined),2000 gAi/ha,250 gAi/ha,250 gAi/ha,31 gAi/ha
O=C(OC(c1cnccc1C(F)(F)F)c1cccc2ccccc12)n1ccnc1 (centres undefined),,>1000 gAi/ha,,>500 gAi/ha
CCN(CC)C(=O)OC(c1cnccc1C(F)(F)F)c1cccc2ccccc12 (centres undefined),> 2000 gAi/ha,1000 gAi/ha,250 gAi/ha,31 gAi/ha
CNC(=O)OC(c1cnccc1C(F)(F)F)c1cccc2ccccc12 (centres undefined),2000 gAi/ha,500 gAi/ha,250 gAi/ha,63 gAi/ha
